Target: T1, hTRPV3 (Homo sapiens, UniProt Q8NET8)
T1 construct: expressed in transfected cells; host or cells: HEK293T
T1 sequence (Q8NET8 1-790): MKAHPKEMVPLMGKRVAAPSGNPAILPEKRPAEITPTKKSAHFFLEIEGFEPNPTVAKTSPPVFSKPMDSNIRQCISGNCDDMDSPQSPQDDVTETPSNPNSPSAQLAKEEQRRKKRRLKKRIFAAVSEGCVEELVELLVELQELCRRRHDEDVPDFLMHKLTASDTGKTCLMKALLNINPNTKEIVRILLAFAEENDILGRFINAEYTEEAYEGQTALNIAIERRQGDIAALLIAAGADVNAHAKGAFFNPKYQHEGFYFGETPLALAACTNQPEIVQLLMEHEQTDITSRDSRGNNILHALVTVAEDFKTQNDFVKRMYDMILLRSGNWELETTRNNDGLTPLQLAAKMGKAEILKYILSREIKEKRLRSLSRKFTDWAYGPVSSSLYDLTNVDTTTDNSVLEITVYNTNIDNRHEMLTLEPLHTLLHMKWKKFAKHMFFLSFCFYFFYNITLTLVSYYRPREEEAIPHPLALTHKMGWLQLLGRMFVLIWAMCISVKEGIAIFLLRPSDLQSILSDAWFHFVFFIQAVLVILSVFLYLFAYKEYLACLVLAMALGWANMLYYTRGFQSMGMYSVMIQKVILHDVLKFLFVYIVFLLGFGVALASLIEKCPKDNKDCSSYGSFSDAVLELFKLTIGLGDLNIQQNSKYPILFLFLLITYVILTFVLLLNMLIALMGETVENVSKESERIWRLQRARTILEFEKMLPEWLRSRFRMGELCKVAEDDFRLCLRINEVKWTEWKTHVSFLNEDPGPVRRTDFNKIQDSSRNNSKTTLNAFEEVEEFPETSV
Assay: single-channel inside-out patch recordings of hTRPV3 in HEK293T cells
Assay type: cell-based
Settings: for single-channel open probability: n = 5
Procedure: HEK293T cell line was obtained from the Cell Resource Center, Peking Union Medical College. HEK293T cells were maintained in Dulbecco’s modified Eagle’s medium (DMEM, Gibco) supplemented with 10% fetal bovine serum at 37 °C with 5% CO2. HEK293T cells were seeded onto glass coverslips 1 day in advance and transiently transfected with […] complementary deoxyribonucleic acids of human TRPV3 (hTRPV3, accession number NM_145068.4), hTRPV1 (accession number NM_080704.3), mTRPV2 (accession number NM_011706.2), hTRPV4 (accession number NM_021625.5), hTRPA1 (accession number NM_007332.3), and hTRPM8 (accession number NM_024080.5) through Lipofectamine 2000 (Invitrogen) following the manufacture’s protocol. The next day, determine the plasmid transfection status by observing green fluorescence based on expression of enhanced GFP as an indicator. […] As for the relative fluorescence intensity, we convert the image to 8 bit grayscale using ImageJ (Https://imagej.net/software/fiji/downloads) and set an appropriate threshold value to reduce background noise and enhance the image contrast.
All patch-clamp recordings were conducted 16 to 24 h after transfection using an EPC10 amplifier powered by PatchMaster software (HEKA) (https://www.heka.com/downloads/downloads_main.html#down_patchmaster) at room temperature. The borosilicate glass pipettes were pulled using a DMZ universal electrode puller (Zeitz-Instruments GmbH) to achieve the resistances of three to 5 MΩ (for whole-cell recordings) or five to 9 MΩ (for inside-out patch recordings). Currents were recorded at a potential ramp from −100 mV to +100 mV for 1000 ms with 1000-ms intervals (for whole-cell recordings) or a persistent potential of −60 mV (inside-out patch recordings). Both pipette solution and bath solution contained (in mM): 130 NaCl, 3 Hepes, and 0.2 EDTA (pH = 7.2–7.4). All recording data were analyzed using Igor Pro (Wave-metrics) (https://www.wavemetrics.com/order/order_igordownloads.htm) and Origin 8.6 (Origin Lab) (https://www.originlab.com/doc/zh/Quick-Help/Download-Installer).

O=C(/C=C/c1ccc(O)c(O)c1)O[C@H](Cc1ccc(O)c(O)c1)C(=O)O [ROSA, rosmarinic acid]
single-channel open probability (ROSA 100 μM co-perfused with 2-APB 50 μM): 0.13 ± 0.05
single-channel open probability (ROSA 100 μM co-perfused with Car 300 μM): 0.28 ± 0.06
effect on channel unitary conductance (ROSA 100 μM with 2-APB 50 μM or Car 300 μM): without altering the channel unitary conductance

— paper PMC12206033, “Selective inhibition of TRPV3 channel by natural rosmarinic acid and its analogs for alleviation of skin lesions through downregulation of NF-κB pathway” (The Journal of Biological Chemistry, 2025)
